Data published in patent US6653317B2, “Pyrimidine 3-oxide compounds for inducing/stimulating hair growth and/or retarding hair loss” (Societe l'Oreal S.A., priority 1998, dated 2003).

Target: T1, prostaglandin endo-peroxidesynthase (PGHS-1) (Ovis aries, UniProt P05979)
T1 construct: isolated from sheep seminal glands; purchased Cayman Chemical 60100; host or cells: sheep seminal glands (tissue-derived)
T1 sequence (P05979 25-600): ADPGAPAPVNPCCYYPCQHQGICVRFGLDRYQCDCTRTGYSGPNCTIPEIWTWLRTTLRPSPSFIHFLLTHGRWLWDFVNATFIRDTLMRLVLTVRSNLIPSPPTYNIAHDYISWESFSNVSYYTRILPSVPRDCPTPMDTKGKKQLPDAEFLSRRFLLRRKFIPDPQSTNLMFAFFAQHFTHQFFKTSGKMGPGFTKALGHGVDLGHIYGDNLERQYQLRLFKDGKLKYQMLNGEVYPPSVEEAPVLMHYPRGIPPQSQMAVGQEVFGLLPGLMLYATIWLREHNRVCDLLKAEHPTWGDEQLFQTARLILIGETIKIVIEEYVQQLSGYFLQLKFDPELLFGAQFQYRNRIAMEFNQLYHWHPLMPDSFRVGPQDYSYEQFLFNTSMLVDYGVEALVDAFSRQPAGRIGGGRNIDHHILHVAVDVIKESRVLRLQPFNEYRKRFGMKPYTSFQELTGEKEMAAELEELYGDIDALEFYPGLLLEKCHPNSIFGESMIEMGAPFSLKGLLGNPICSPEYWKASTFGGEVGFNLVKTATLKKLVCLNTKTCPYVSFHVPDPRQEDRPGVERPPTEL
Test: Measurement of the prostaglandin-endoperoxide synthase (PGHS-1) activating power (oxygen consumption, Clark electrode)
Assay type: biochemical, sheep
Conditions: test compound 0.5 mM; oxidation of arachidonic acid, 37° C., pH 8.00; % relative to the values obtained with the control
Protocol: The amount of oxygen required for the oxidation of arachidonic acid was measured by means of the cyclooxygenase activity of the prostaglandin-endo-peroxide synthase, in the presence or absence of the test compound.
The oxygen consumption measurements were taken using a Clark electrode connected to a YSI 5300 oxymeter marketed by Yellow Spring Instruments.
These measurements were taken in an open chamber with constant stirring at a temperature of 37° C.
If a graph recorder was used, the oxygen consumption measurement is expressed in the form of a curve, the maximum slope of which makes it possible to determine the initial rate of the reaction, and from which it is possible to calculate the period for which the initial reaction rate is maintained.
The curve thus obtained, in the absence of any substance other than the ingredients required for the enzymatic reaction, provides the basal activity of the enzyme. The initial rate and the period for which this rate is maintained can be determined under these conditions in a reaction comprising only the enzyme and its substrate.
The activity of the test compounds was measured under the same conditions, by adding the test compound to the reaction medium. The activity of the test compound with respect to cyclooxygenase was evaluated by means of the variation of the slope and the variation of the period for which the maximum rate was maintained.
A solution of 0.1 M Tris and 5 mM EDTA at pH=8.00 (TE solution) was prepared.
The substrate was formulated in the form of a stock solution of potassium arachidonate according to the supplier's procedure (Interchim, France).
The test compounds were prepared in the form of a stock solution with a titre of 5 mM, in a water/alcohol mixture (80/20) and were tested with the same batch of enzyme.
At t=0, 380 μl of TEA buffer preheated to 37° C. were introduced into the measuring chamber and maintained to equilibrate for at least one minute.
At t=1, 300 units of enzyme (PGHS) were introduced.
Recording was initiated, and the mixture was again permitted to stabilize for one minute. The recording obtained provided the reaction baseline.
After a further minute, 10 μl of substrate were introduced and the oxygen consumption was recorded for 2 to 3 minutes.
The initial reaction rate and the period for which this rate was maintained were thus determined.
The experimental conditions were identical to those above, except that the TEA buffer preheated to 37° C. was replaced by an identical buffer containing the test compound at a concentration of 0.5 mM.
The following results are expressed as a % relative to the values obtained with the control.

| SMILES | Activation |
| --- | --- |
| CCCCCCNc1ccnc(N)[n+]1[O-] [Example 1, 2-Amino-4-hexylaminopyrimidine 3-Oxide] | +37% |
| CCCCCCCCCCCCNc1ccnc(N)[n+]1[O-] [Example 2, 2-Amino-4-dodecylaminopyrimidine 3-Oxide] | +11% |
| CCCCCCCCNc1ccnc(N)[n+]1[O-] [Example 3, 2-Amino-4-octylaminopyrimidine 3-Oxide] | +14% |
| CCCCCCCCNc1cc(OCCCC)nc(N)[n+]1[O-] [Example 17, 2-Amino-4-octylamino-6-butyloxypyrimidine 3-Oxide] | +8% |
